The record followed here is EP0385952A2, “Use of a naphthalenmethanamino derivative as antiinflammatory agent and pharmaceutical compositions containing it” (SANDOZ AG, priority 1989, dated 1990).

Data set [1] relates to Macrophages isolated from the bone marrow of mice. As to the kind of experiment: Zymosan-stimulated release of hydrogen peroxide. The format is cell-based. The note with it: Mus musculus, Macrophage, 2 hours at 37° C, read-out: IC₅₀, zymosan-stimulated release of hydrogen peroxide. The protocol: The production of hydrogen peroxide is used as a measure for the respiratory burst of phagocytic cells. Macrophages 10 to 14 days old, isolated from the bone marrow of mice are incubated for 10 to 30 minutes in the presence of the test compound. Zymosan (0.5 ml) is then added as phagocytic stimulant and the mixture is incubated for a further 2 hours at 37° C in the presence of homovallinic acid (0.5 ml, 400 µM) and horse radish peroxidase (4 U/ml). The reaction is stopped by the addition of 0.25 ml 0.1 M glycine-NaOH buffer, pH 12, containing 25 mM EDTA, the samples centrifuged at 2200 g for 10 minutes, and the homovallinic acid oxidation product, as a measure of the amount of H₂O₂ produced, measured fluorimetrically.

Data set [2] addresses T1, 5-lipoxygenase (Homo sapiens, UniProt P09917).
T1 construct: endogenous in cells
T1 sequence (P09917 1-674): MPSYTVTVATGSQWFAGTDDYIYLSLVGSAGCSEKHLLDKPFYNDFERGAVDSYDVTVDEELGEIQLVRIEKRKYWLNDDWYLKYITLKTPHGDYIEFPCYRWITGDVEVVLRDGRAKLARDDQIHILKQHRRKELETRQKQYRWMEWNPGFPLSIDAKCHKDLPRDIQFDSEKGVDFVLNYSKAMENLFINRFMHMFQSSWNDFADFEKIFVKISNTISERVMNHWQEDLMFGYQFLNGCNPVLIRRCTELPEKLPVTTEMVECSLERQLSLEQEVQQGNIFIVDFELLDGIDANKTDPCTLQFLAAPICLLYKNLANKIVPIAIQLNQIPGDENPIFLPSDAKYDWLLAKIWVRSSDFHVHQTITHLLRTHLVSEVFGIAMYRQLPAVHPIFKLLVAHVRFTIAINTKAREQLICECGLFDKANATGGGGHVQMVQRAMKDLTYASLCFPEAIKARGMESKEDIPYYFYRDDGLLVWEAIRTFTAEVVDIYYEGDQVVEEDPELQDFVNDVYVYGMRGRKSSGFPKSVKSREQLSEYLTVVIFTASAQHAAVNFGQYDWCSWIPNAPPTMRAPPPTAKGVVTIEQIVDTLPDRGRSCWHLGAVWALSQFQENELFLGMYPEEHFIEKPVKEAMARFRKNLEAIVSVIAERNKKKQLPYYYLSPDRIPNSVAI
As to the kind of experiment: 5-lipoxygenase inhibition (neutrophil functions). It counts as cell-based. To be noted: read-out: IC₅₀ for 5-lipoxygenase.

The nature of data set [3]: Solubility in water. The format is physicochemical. The note with it: at 25°C.
For data set [4], the system named is mice. Nature of the data set: TPA-induced pinnal swelling in mice (irritant contact dermatitis, 2.1.2.). It counts as in vivo. The note with it: therapeutic, topical, pinnal weight after 6 hours. The protocol:
Skin irritation with arachidonic acid or cantharidin is often used to experimentally induce inflammation in order to evaluate the anti-inflammatory activity of a compound [see e.g. Inflammation 8 (1984) 134-135; 10 (1986) 205-214]. NMRI mice (8 animals per group) receive 10 µl of a 10 % solution of arachidonic acid [J.M. Young et al., J. Invest. Derm. 82 (1986) 367-371] in acetone or, respectively, 0.08 % cantharidin [K.E. Swingle et al., Arch. Int. Pharmacodyn. Ther. 254 (1981) 168-176] in acetone applied to the medial and lateral surface of the right external ear. Treatment is performed either prophylactically 30 minutes before irritation (arachidonic acid) or, respectively, either simultaneously with the application of irritant solution or therapeutically 20 minutes after irritation (cantharidin), by a single epicutaneous application of the test compound dissolved in a mixture of N,N-dimethylacetamide, acetone and alcohol (2:2:4). The evaluation of the test group is effected by comparison with a control group of animals having received on the right ear lobe only the carrier substance or the irritant solution. The animals are killed 1.5 hours (arachidonic acid) or, respectively, 17 hours (cantharidin) after application of the irritant and efficacy in assessed by determination of the differences in auricular weight. Differences in weights (D) of right (involved) and left (uninvolved) pinnae of animals treated with test compound and arachidonic acid or cantharidin (T-group) are compared with differences in mice treated with arachidonic acid only or cantharidin only (C-group). Efficacy (%) is calculated according to the equation: [formula]
This model is similar to the above (see 2.1.1.). Skin inflammation is induced with 15 µl of 0.23 % croton oil in a mixture of dimethylacetamide, acetone and ethanol (2:4:4), or with 10 µl of 0.005 % TPA [12-O-tetradecanoylphorbol-13-acetate; Sigma] prepared in acetone with 0.5 % dimethylsulfoxide. Topical treatment is performed either simultaneously with the irritation (croton oil) or 20 minutes after the application (TPA). The test compound is prepared in DAE. Efficacy is assessed 6 hours after onset of irritation by determination of the auricular weight as described above.

Marks after values point to notes of the source that are not given here.

On to `CN(C/C=C/c1ccc(O)cc1)Cc1cccc2ccccc12` [compound of the invention, (E)-N-methyl-N-[3-(4-hydroxyphenyl)-2-propenyl]-1-naphthalene-methanamine], for which the IC50 in data set [1] worked out at 2.1 µM; in data set [2] it was 44 µM. The solubility (commonly the concentration that dissolves in the medium under given conditions) in data set [3] is less than 100 µg/mL. Moreover, the results for the “Efficacy (%)” value in data set [4] (test concentration 1.2 %) and in data set [4] (test concentration 3.6 %) were 51% and 60*** %, respectively.
